#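 How tested: cells in 96-well plates exposed to compound for 48 hours at five concentrations. At the GI50, growth is halved.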 The source made the active and inactive calls. No stated cut-off is given here; in the data, active = GI50 up to about 1.1 µM and inactive = higher.
# What was measured:
# Test in all cases: growth of human tumour cells (NCI), 48 h
# EKVX = system: EKVX
# UACC-62 = system: UACC-62
# BT-549 = system: BT-549
# COLO 205 = system: COLO 205
# OVCAR-8 = system: OVCAR-8
# MDA-N = system: MDA-N
# MDA-MB-435 = system: MDA-MB-435
# OVCAR-3 = system: OVCAR-3
# SK-MEL-5 = system: SK-MEL-5
# LOX IMVI = system: LOX IMVI
# HCT-15 = system: HCT-15
# HCC 2998 = system: HCC 2998
# SR = system: SR
# U-251 = system: U-251
# RPMI-8226 = system: RPMI-8226
# SK-MEL-28 = system: SK-MEL-28
# NCI-H23 = system: NCI-H23
# RXF 393 = system: RXF 393
# KM12 = system: KM12
# NCI/ADR-RES = system: NCI/ADR-RES
# Malme-3M = system: Malme-3M
# HOP-62 = system: HOP-62
# ACHN = system: ACHN
# SF-539 = system: SF-539
# A498 = system: A498
# OVCAR-5 = system: OVCAR-5
# SK-MEL-2 = system: SK-MEL-2
# NCI-H522 = system: NCI-H522
# MDA-MB-231 = system: MDA-MB-231
# M14 = system: M14
# UACC-257 = system: UACC-257
# T47D = system: T47D
# MOLT-4 = system: MOLT-4
# K562 = system: K562
# HCT-116 = system: HCT-116
# TK-10 = system: TK-10
# 786-0 = system: 786-0
# PC-3 = system: PC-3
# HL-60 = system: HL-60
# NCI-H460 = system: NCI-H460
# NCI-H226 = system: NCI-H226
# UO-31 = system: UO-31
# A549 = system: A549
# CCRF-CEM = system: CCRF-CEM
# SF-295 = system: SF-295
# SW-620 = system: SW-620
# SN12C = system: SN12C
# CAKI-1 = system: CAKI-1
# HT-29 = system: HT-29
# SNB-75 = system: SNB-75
# SF-268 = system: SF-268
# HOP-92 = system: HOP-92
# Hs-578T = system: Hs-578T
# SNB-19 = system: SNB-19
# DU-145 = system: DU-145
# SK-OV-3 = system: SK-OV-3
# MCF7 = system: MCF7
# IGROV-1 = system: IGROV-1
compound,measurement,setting,value
CN(C)CCn1c(=O)c2ccc3c4c(nn3CCN(C)C)c3cc(O)ccc3n(c1=O)c24,GI50,EKVX,0.124 µM (active)
same,GI50,UACC-62,0.172 µM (active)
same,GI50,BT-549,0.879 µM (active)
same,GI50,COLO 205,0.0706 µM (active)
same,GI50,OVCAR-8,< 0.01 µM (active)
same,GI50,MDA-N,0.181 µM (active)
same,GI50,MDA-MB-435,0.134 µM (active)
same,GI50,OVCAR-3,0.114 µM (active)
same,GI50,SK-MEL-5,0.319 µM (active)
same,GI50,LOX IMVI,< 0.0306 µM (active)
same,GI50,HCT-15,0.147 µM
same,GI50,HCC 2998,< 0.0493 µM (active)
same,GI50,SR,< 0.01 µM (active)
same,GI50,U-251,< 0.0348 µM (active)
same,GI50,RPMI-8226,0.0541 µM (active)
same,GI50,SK-MEL-28,0.548 µM (active)
same,GI50,NCI-H23,0.0855 µM (active)
same,GI50,RXF 393,0.281 µM (active)
same,GI50,KM12,0.161 µM (active)
same,GI50,NCI/ADR-RES,0.783 µM (active)
same,GI50,Malme-3M,0.354 µM (active)
same,GI50,HOP-62,< 0.0316 µM (active)
same,GI50,ACHN,< 0.0308 µM (active)
same,GI50,SF-539,1.29 µM (inactive)
same,GI50,A498,0.198 µM (active)
same,GI50,OVCAR-5,0.0723 µM (active)
same,GI50,SK-MEL-2,0.131 µM (active)
same,GI50,NCI-H522,< 0.01 µM (active)
same,GI50,MDA-MB-231,0.0536 µM (active)
same,GI50,M14,0.397 µM (active)
same,GI50,UACC-257,0.308 µM (active)
same,GI50,T47D,0.378 µM (active)
same,GI50,MOLT-4,< 0.01 µM (active)
same,GI50,K562,0.0459 µM (active)
same,GI50,HCT-116,< 0.0225 µM (active)
same,GI50,TK-10,0.117 µM (active)
same,GI50,786-0,< 0.01 µM (active)
same,GI50,PC-3,0.0659 µM (active)
same,GI50,HL-60,0.0419 µM (active)
same,GI50,NCI-H460,< 0.0411 µM (active)
same,GI50,NCI-H226,0.126 µM (active)
same,GI50,UO-31,0.0927 µM (active)
same,GI50,A549,0.0325 µM (active)
same,GI50,CCRF-CEM,< 0.032 µM (active)
same,GI50,SF-295,0.0136 µM (active)
same,GI50,SW-620,0.0365 µM (active)
same,GI50,SN12C,0.0148 µM (active)
same,GI50,CAKI-1,0.0501 µM (active)
same,GI50,HT-29,< 0.01 µM (active)
same,GI50,SNB-75,0.059 µM (active)
[N-]=[N+]=NCc1cccc(Nc2cc(=O)[nH]c(=O)[nH]2)c1,GI50,EKVX,> 100 µM (inactive)
same,GI50,UACC-62,> 100 µM (inactive)
same,GI50,BT-549,> 100 µM (inactive)
same,GI50,COLO 205,> 100 µM (inactive)
same,GI50,SF-268,> 100 µM (inactive)
same,GI50,OVCAR-8,> 100 µM (inactive)
same,GI50,MDA-N,> 100 µM (inactive)
same,GI50,MDA-MB-435,> 100 µM (inactive)
same,GI50,HOP-92,74 µM (inactive)
same,GI50,OVCAR-3,> 100 µM (inactive)
same,GI50,Hs-578T,> 100 µM (inactive)
same,GI50,SNB-19,> 100 µM (inactive)
same,GI50,SK-MEL-5,> 100 µM (inactive)
same,GI50,LOX IMVI,> 100 µM (inactive)
same,GI50,HCT-15,> 100 µM
same,GI50,HCC 2998,> 100 µM (inactive)
same,GI50,DU-145,> 100 µM (inactive)
same,GI50,SR,> 100 µM (inactive)
same,GI50,SK-OV-3,> 100 µM (inactive)
same,GI50,RPMI-8226,> 100 µM (inactive)
same,GI50,SK-MEL-28,> 100 µM (inactive)
same,GI50,NCI-H23,> 100 µM (inactive)
same,GI50,RXF 393,> 100 µM (inactive)
same,GI50,KM12,> 100 µM (inactive)
same,GI50,NCI/ADR-RES,> 100 µM (inactive)
same,GI50,Malme-3M,> 100 µM (inactive)
same,GI50,HOP-62,> 100 µM (inactive)
same,GI50,ACHN,> 100 µM (inactive)
same,GI50,SF-539,> 100 µM (inactive)
same,GI50,A498,> 100 µM (inactive)
same,GI50,OVCAR-5,> 100 µM (inactive)
same,GI50,SK-MEL-2,> 100 µM (inactive)
same,GI50,NCI-H522,> 100 µM (inactive)
same,GI50,M14,> 100 µM (inactive)
same,GI50,UACC-257,30.8 µM (inactive)
same,GI50,T47D,51.2 µM (inactive)
same,GI50,MOLT-4,> 100 µM (inactive)
same,GI50,MCF7,> 100 µM (inactive)
same,GI50,K562,> 100 µM (inactive)
same,GI50,HCT-116,> 100 µM (inactive)
same,GI50,TK-10,> 100 µM (inactive)
same,GI50,786-0,> 100 µM (inactive)
same,GI50,HL-60,> 100 µM (inactive)
same,GI50,NCI-H226,> 100 µM (inactive)
same,GI50,UO-31,> 100 µM (inactive)
same,GI50,A549,> 100 µM (inactive)
same,GI50,CCRF-CEM,> 100 µM (inactive)
same,GI50,SF-295,57.3 µM (inactive)
same,GI50,SW-620,> 100 µM (inactive)
same,GI50,SN12C,> 100 µM (inactive)
same,GI50,CAKI-1,> 100 µM (inactive)
same,GI50,HT-29,> 100 µM (inactive)
same,GI50,IGROV-1,> 100 µM (inactive)
same,GI50,SNB-75,> 100 µM (inactive)
